Data reported in article PMC12527922, “Cocaine chemogenetics blunts drug-seeking by synthetic physiology” (Nature, 2025).
Read-outs that look alike come from different tables or passages of the source.

Assays:
Test in all cases: cell-based
Type in all cases: cell-based, human α7 nAChR LBD, mouse 5HT3 IPD
[1] = molecular target: α7–5HT3 mutant chimeric channels (Homo sapiens, UniProt P36544, L141F)
[2] = molecular target: α7–5HT3 mutant chimeric channels (Homo sapiens, UniProt P36544, Q79A)
[3] = molecular target: α7–5HT3 mutant chimeric channels (Homo sapiens, UniProt P36544, S170Y)
[4] = molecular target: α7–5HT3 mutant chimeric channels (Homo sapiens, UniProt P36544, S172K)
[5] = molecular target: α7–5HT3 mutant chimeric channels (Homo sapiens, UniProt P36544, L141A)
[6] = molecular target: α7–5HT3 mutant chimeric channels (Homo sapiens, UniProt P36544, S170Q)
[7] = molecular target: α7–5HT3 mutant chimeric channels (Homo sapiens, UniProt P36544, L131G)
[8] = molecular target: α7–5HT3 mutant chimeric channels (Homo sapiens, UniProt P36544, S172L)
[9] = molecular target: α7–5HT3 mutant chimeric channels (Homo sapiens, UniProt P36544, S170F)
[10] = molecular target: α7–5HT3 mutant chimeric channels (Homo sapiens, UniProt P36544, Q139F)
[11] = molecular target: α7–5HT3 mutant chimeric channels (Homo sapiens, UniProt P36544, S170H)
[12] = molecular target: α7–5HT3 mutant chimeric channels (Homo sapiens, UniProt P36544, S170G)
[13] = molecular target: α7–5HT3 mutant chimeric channels (Homo sapiens, UniProt P36544, Q139P)
[14] = molecular target: α7–5HT3 mutant chimeric channels (Homo sapiens, UniProt P36544, W77L)
[15] = molecular target: α7–5HT3 mutant chimeric channels (Homo sapiens, UniProt P36544, S170T)
[16] = molecular target: α7–5HT3 mutant chimeric channels (Homo sapiens, UniProt P36544, S170N)
[17] = molecular target: α7–5HT3 mutant chimeric channels (Homo sapiens, UniProt P36544, Q139D)
[18] = molecular target: α7–5HT3 mutant chimeric channels (Homo sapiens, UniProt P36544, S172V)
[19] = molecular target: α7–5HT3 mutant chimeric channels (Homo sapiens, UniProt P36544, Q139Y)
[20] = molecular target: α7–5HT3 mutant chimeric channels (Homo sapiens, UniProt P36544, Q139R)
[21] = molecular target: α7–5HT3 mutant chimeric channels (Homo sapiens, UniProt P36544, Q139L)
[22] = molecular target: α7–5HT3 mutant chimeric channels (Homo sapiens, UniProt P36544, L141S)
[23] = molecular target: α7–5HT3 mutant chimeric channels (Homo sapiens, UniProt P36544, Q139K)
[24] = molecular target: α7–5HT3 mutant chimeric channels (Homo sapiens, UniProt P36544, W77F)
[25] = molecular target: α7–5HT3 mutant chimeric channels (Homo sapiens, UniProt P36544, Q79G)
[26] = molecular target: α7–5HT3 mutant chimeric channels (Homo sapiens, UniProt P36544, L141G)

Sequence of α7–5HT3 mutant chimeric channels (Homo sapiens, UniProt P36544, W77L) (P36544 23-224 W77L): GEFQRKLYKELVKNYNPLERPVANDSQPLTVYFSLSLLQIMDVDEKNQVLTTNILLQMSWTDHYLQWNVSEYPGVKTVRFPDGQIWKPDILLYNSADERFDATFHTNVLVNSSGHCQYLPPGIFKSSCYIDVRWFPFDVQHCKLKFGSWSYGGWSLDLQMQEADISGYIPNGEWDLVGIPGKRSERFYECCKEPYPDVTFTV
Sequence of α7–5HT3 mutant chimeric channels (Homo sapiens, UniProt P36544, W77L) (P23979 242-489, further chain): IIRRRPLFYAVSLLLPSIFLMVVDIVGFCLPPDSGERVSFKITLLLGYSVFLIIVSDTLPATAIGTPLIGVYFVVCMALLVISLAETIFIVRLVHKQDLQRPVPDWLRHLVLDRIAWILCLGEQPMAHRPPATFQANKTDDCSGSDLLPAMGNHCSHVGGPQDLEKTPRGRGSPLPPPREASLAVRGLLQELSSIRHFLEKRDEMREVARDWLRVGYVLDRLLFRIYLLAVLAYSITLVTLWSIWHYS
Sequence of α7–5HT3 mutant chimeric channels (Homo sapiens, UniProt P36544, Q139L) (P36544 23-224 Q139L): as the sequence (P36544 23-224 W77L) above, with L55W, Q117L counted along it
Sequence of α7–5HT3 mutant chimeric channels (Homo sapiens, UniProt P36544, Q139L) (P23979 242-489, further chain): as the sequence (P23979 242-489, further chain) above
Sequence of α7–5HT3 mutant chimeric channels (Homo sapiens, UniProt P36544, L131G) (P36544 23-224 L131G): as the sequence (P36544 23-224 W77L) above, with L55W, L109G counted along it
Sequence of α7–5HT3 mutant chimeric channels (Homo sapiens, UniProt P36544, L131G) (P23979 242-489, further chain): as the sequence (P23979 242-489, further chain) above
Sequence of α7–5HT3 mutant chimeric channels (Homo sapiens, UniProt P36544, Q79G) (P36544 23-224 Q79G): as the sequence (P36544 23-224 W77L) above, with L55W, Q57G counted along it
Sequence of α7–5HT3 mutant chimeric channels (Homo sapiens, UniProt P36544, Q79G) (P23979 242-489, further chain): as the sequence (P23979 242-489, further chain) above
Sequence of α7–5HT3 mutant chimeric channels (Homo sapiens, UniProt P36544, Q139Y) (P36544 23-224 Q139Y): as the sequence (P36544 23-224 W77L) above, with L55W, Q117Y counted along it
Sequence of α7–5HT3 mutant chimeric channels (Homo sapiens, UniProt P36544, Q139Y) (P23979 242-489, further chain): as the sequence (P23979 242-489, further chain) above
Sequence of α7–5HT3 mutant chimeric channels (Homo sapiens, UniProt P36544, L141F) (P36544 23-224 L141F): as the sequence (P36544 23-224 W77L) above, with L55W, L119F counted along it
Sequence of α7–5HT3 mutant chimeric channels (Homo sapiens, UniProt P36544, L141F) (P23979 242-489, further chain): as the sequence (P23979 242-489, further chain) above
Sequence of α7–5HT3 mutant chimeric channels (Homo sapiens, UniProt P36544, Q139P) (P23979 242-489): as the sequence (P23979 242-489, further chain) above
Sequence of α7–5HT3 mutant chimeric channels (Homo sapiens, UniProt P36544, Q139P) (P36544 23-224 Q139P): as the sequence (P36544 23-224 W77L) above, with L55W, Q117P counted along it
Sequence of α7–5HT3 mutant chimeric channels (Homo sapiens, UniProt P36544, Q139K) (P23979 242-489): as the sequence (P23979 242-489, further chain) above
Sequence of α7–5HT3 mutant chimeric channels (Homo sapiens, UniProt P36544, Q139K) (P36544 23-224 Q139K): as the sequence (P36544 23-224 W77L) above, with L55W, Q117K counted along it
Sequence of α7–5HT3 mutant chimeric channels (Homo sapiens, UniProt P36544, W77F) (P23979 242-489): as the sequence (P23979 242-489, further chain) above
Sequence of α7–5HT3 mutant chimeric channels (Homo sapiens, UniProt P36544, W77F) (P36544 23-224 W77F): as the sequence (P36544 23-224 W77L) above, with L55F counted along it
Sequence of α7–5HT3 mutant chimeric channels (Homo sapiens, UniProt P36544, Q79A) (P23979 242-489): as the sequence (P23979 242-489, further chain) above
Sequence of α7–5HT3 mutant chimeric channels (Homo sapiens, UniProt P36544, Q79A) (P36544 23-224 Q79A): as the sequence (P36544 23-224 W77L) above, with L55W, Q57A counted along it

Work on COC(=O)[C@H]1[C@@H](OC(=O)c2ccccc2)C[C@@H]2CC[C@H]1N2C [cocaine] yielded an EC50 [1] of over 30 µM, an EC50 ([1]; read-out: EC50 at α75HT3 L141F, sheet 1d, single determinations) of over 30 µM and an EC50 [2] of over 30 µM. It also gave an EC50 ([2]; read-out: EC50 at a7 5HT3 Q79A, sheet 1d, single determinations) of over 30 µM, an EC50 [3] of over 30 µM and an EC50 [4] of over 30 µM. It also gave an EC50 [5] of 3.5 µM, an EC50 [6] of over 30 µM and an EC50 [7] of over 30 µM. For the same compound, the EC50 ([7]; read-out: EC50 at α75HT3 L131G, sheet 1d, single determinations) was over 30 µM, the EC50 [8] was over 30 µM and the EC50 [9] was over 30 µM. It also gave an EC50 [10] of over 30 µM, an EC50 ([10]; read-out: EC50 at a7 5HT3 Q139F, Avg, sheet 1d, Avg) of over 30 µM and an EC50 [11] of over 30 µM. It also gave an EC50 [12] of over 30 µM, an EC50 [13] of over 30 µM and an EC50 ([13]; read-out: EC50 at a7 5HT3 Q139P, Avg, sheet 1d, Avg) of over 30 µM. It also gave an EC50 [14] of over 30 µM, an EC50 ([14]; read-out: EC50 at a7 5HT3 W77L, Avg, sheet 1d, Avg) of over 30 µM and an EC50 [15] of over 30 µM. It also gave an EC50 [16] of over 30 µM, an EC50 [17] of over 30 µM and an EC50 ([17]; read-out: EC50 at a7 5HT3 Q139D, Avg, sheet 1d, Avg) of over 30 µM. For the same compound, the EC50 [18] was over 30 µM, the EC50 [19] was over 30 µM and the EC50 ([19]; read-out: EC50 at a7 5HT3 Q139Y, Avg, sheet 1d, Avg) was over 30 µM. It also gave an EC50 [20] of over 30 µM, an EC50 ([20]; read-out: EC50 at a7 5HT3 Q139R, Avg, sheet 1d, Avg) of over 30 µM and an EC50 [21] of over 30 µM. The EC50 ([21]; read-out: EC50 at a7 5HT3 Q139L, sheet 1d, single determinations) was over 30 µM, the EC50 [22] was over 30 µM and the EC50 ([22]; read-out: EC50 at α75HT3 L141S, sheet 1d, single determinations) was over 30 µM. The EC50 [23] was over 30 µM, the EC50 ([23]; read-out: EC50 at a7 5HT3 Q139K, Avg, sheet 1d, Avg) was over 30 µM and the EC50 [24] was over 30 µM. For the same compound, the EC50 ([24]; read-out: EC50 at a7 5HT3 W77F, sheet 1d, single determinations) was over 30 µM, the EC50 [25] was over 30 µM and the EC50 ([25]; read-out: EC50 at a7 5HT3 Q79G, sheet 1d, single determinations) was over 30 µM. For the same compound, the EC50 [26] was 2.35 µM.
